# Measurements reported in publication PMC9953885 (Biosensors, 2023).
# Where a name gives a salt, the structure may show the parent alone.
# Biological target: T1, human pancreatic lipase (hPL) (Homo sapiens, UniProt P16233)
# T1 construct: gene PNLIP
# T1 sequence (P16233 17-465): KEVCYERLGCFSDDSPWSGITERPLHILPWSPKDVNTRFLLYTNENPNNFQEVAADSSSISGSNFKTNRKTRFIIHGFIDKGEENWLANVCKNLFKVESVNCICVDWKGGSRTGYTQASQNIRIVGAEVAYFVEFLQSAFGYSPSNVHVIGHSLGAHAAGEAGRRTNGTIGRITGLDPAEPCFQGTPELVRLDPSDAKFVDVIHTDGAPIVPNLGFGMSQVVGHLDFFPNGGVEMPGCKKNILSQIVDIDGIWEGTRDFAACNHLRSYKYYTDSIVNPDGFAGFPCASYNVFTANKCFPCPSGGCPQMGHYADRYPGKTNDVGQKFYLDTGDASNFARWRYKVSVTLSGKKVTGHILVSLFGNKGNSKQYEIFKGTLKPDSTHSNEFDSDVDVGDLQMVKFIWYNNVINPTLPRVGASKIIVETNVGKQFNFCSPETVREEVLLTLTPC
# Details: 10 µM; inhibitor
# Method: First, we evaluated the inhibitory effect of 94 natural products derived from herbs and 94 drugs on hPL. In our high-throughput screening system, 1 ug/mL hPL was used, and the final concentration of the 94 natural products derived from herbs and 94 drugs used was 10 μM. Other conditions were the same as in the selectivity experiments. […] RLE was incubated with hPL and various enzymes, such as hCES1A, hCES2A, CA, AchE, BchE, 5-HKE, lysozyme, trypsin, thrombin, α-CT, FAP, PREP, pepsin, α-amylase, plasmin, notum and hSA, in a 100 µL incubation mixture consisting of Tris-HCl (pH = 7.4, 25 mM), NaCl (150 mM), CaCl2 (1 mM) and porcine bile salt (0.1 mg/mL) at a concentration of 1.5 µg/mL. The reaction was initiated by adding RLE to the preincubated enzyme mixture at 37 °C, and metabolite formation was determined by measuring the fluorescence intensity of resorufin at 590 nm. In addition, several amino acids (IIe, His, Trp, Val, Leu, Tyr, Ala, Thr, Pro, Asp, Lys, Met, Cys, Ser, Phe, Gly, Glu and Gln), ions (Ni^2+, Ca^2+, Na^+, K^+, Cu^2+, Zn^2+, Mg^2+, NH4^+, Cu^+, Fe^2+ and CN^-) and GSH were measured. The concentration of these interfering factors was 5 μM. […] In this case, a visual high-throughput assay was established to screen hPL inhibitors, using RLE as a fluorogenic substrate in a 96-well microplate.
row,Structure (SMILES),% of control remaining [%]
1,O=P1(N(CCCl)CCCl)NCCCO1 (stereo not shown) [Cyclophosphamide],91.59
2,O=C(CCc1ccc(O)cc1)c1c(O)cc(O)cc1O[C@@H]1O[C@H](CO)[C@@H](O)[C@H](O)[C@H]1O [Phlorizin dihydrate],85.09
3,C[C@@H]1C(=O)O[C@H]2[C@H](O)[C@@]34O[C@@H]5OC(=O)[C@H](O)[C@@]56[C@H](C(C)(C)C)[C@H](O)C(OC3=O)[C@]64[C@@]12O (stereo partly shown) [Ginkgolide C],106.22
4,CCc1c2c(nc3ccc(OC(=O)N4CCC(N5CCCCC5)CC4)cc13)-c1cc3c(c(=O)n1C2)COC(=O)[C@]3(O)CC [Irinotecan],105.25
5,COc1cc(O)c(CC=C(C)C)c(O)c1C(=O)/C=C/c1ccc(O)cc1 [Xanthohumol],81.19
6,CCC/C=C1\OC(=O)C2=C1CCC=C2 [Z-Ligustilide],83.60
7,O=c1ccc2cc(O)c(O)cc2o1 [Esculetin],86.12
8,Cc1cn([C@H]2C[C@H](N=[N+]=[N-])[C@@H](CO)O2)c(=O)[nH]c1=O [Zidovudine],73.04
9,CN(C/C=C/C#CC(C)(C)C)Cc1cccc2ccccc12 [Terbinafine Hydrochloride],91.01
10,O=c1c(O)c(-c2ccc(O)cc2)oc2c(O)c(O)cc(O)c12 [Herbacetin],83.59
11,Nc1ccn([C@@H]2O[C@H](CO)[C@@H](O)C2(F)F)c(=O)n1 [Gemcitabine],105.06
12,CN(C)C(=O)Oc1cc(OC(=O)N(C)C)cc(C(O)CNC(C)(C)C)c1 (stereo not shown) [Bambuterol hydrochloride],93.23
13,COC(=O)C1=CO[C@@H](O)[C@@H]2C(CO)=CC[C@H]12 [Genipin],99.28
14,O=C(Cc1ccccc1F)C1CC1 [Cyclopropyl 2-fluorobenzyl ketone],117.10
15,CC(C)c1nc(CN(C)C(=O)N[C@H](C(=O)N[C@@H](Cc2ccccc2)C[C@H](O)[C@H](Cc2ccccc2)NC(=O)OCc2cncs2)C(C)C)cs1 [Ritonavir],97.04
16,C#C[C@]1(O)CC[C@H]2[C@@H]3CCC4=CC(=O)CC[C@@H]4[C@H]3C(=C)C[C@@]21CC [Etonogestrel],62.97
17,COc1cc(-c2oc3cc(O)cc(O)c3c(=O)c2O[C@@H]2O[C@H](CO)[C@@H](O)[C@H](O)[C@H]2O)ccc1O [Isorhamnetin-3-glucoside],93.93
18,CC1COc2c(N3CCN(C)CC3)c(F)cc3c(=O)c(C(=O)O)cn1c23 (stereo not shown) [Ofloxacin],87.95
19,CC(C)=CCOc1c2ccoc2cc2oc(=O)ccc12 [Isoimperatorin],72.90
20,COC(=O)N[C@H](C(=O)N[C@@H](Cc1ccccc1)[C@@H](O)CN(Cc1ccc(-c2ccccn2)cc1)NC(=O)[C@@H](NC(=O)OC)C(C)(C)C)C(C)(C)C [Atazanavir],79.92
21,O=C(O)Cc1ccccc1Nc1c(Cl)cccc1Cl [diclofenzc],97.62

row,Structure (SMILES),% of control remaining [%]
1,COc1ccc2cc3[n+](cc2c1O)CCc1cc2c(cc1-3)OCO2 [Berberrubine],86.09
2,CN/C(=N\CCSCc1nc[nH]c1C)NC#N [Cimetidine],111.11
3,C=CC(=O)Nc1cc(Nc2nccc(-c3cn(C)c4ccccc34)n2)c(OC)cc1N(C)CCN(C)C [AZD-9291],92.69
4,COc1cc2c3cc1Oc1c(OC)c(OC)cc4c1[C@@H](Cc1cccc(c1)Oc1ccc(c(O)c1)C[C@@H]3N(C)CC2)N(C)CC4 [Berbamine Hydrochloride],69.86
5,NC(=O)N1c2ccccc2C=Cc2ccccc21 [Carbamazepine],104.15
6,CC(C)(C)NCC(O)c1cc(O)cc(O)c1 (stereo not shown) [Terbutaline],108.89
7,COCCc1ccc(OCC(O)CNC(C)C)cc1 (stereo not shown) [Metoprolol tartrate],135.23
8,Cc1nc(Nc2ncc(C(=O)Nc3c(C)cccc3Cl)s2)cc(N2CCN(CCO)CC2)n1 [Dasatinib],91.97
9,C/C=C(/C)C(=O)O[C@H]1[C@@H](OC(=O)CC(C)C)c2c(ccc3ccc(=O)oc23)OC1(C)C [Praeruptorin E],87.81
10,CN(C)CCCN1c2ccccc2CCc2ccccc21 [Imipramine hydrochloride],92.51
11,CC(C)CCC[C@@H](C)[C@H]1CC[C@H]2[C@@H]3CCC4=CC(=O)CC[C@]4(C)[C@H]3CC[C@]12C [4-Cholesten-3-one],77.59
12,CN1CCN(C2=Nc3cc(Cl)ccc3Nc3ccccc32)CC1 [Clozapine],97.86
13,COc1ccc(CCC(=O)c2ccc(O)cc2)c(OC)c1 [Loureirin A],67.52
14,"COc1ccc(-c2coc3cc(O)cc(O)c3c2=O)cc1 [5,7-Dihydrox-4'-methoxyisoflavone]",100.90
15,CC1=C(O)C(=O)C=C2C1=CC=C1[C@@]2(C)CC[C@@]2(C)[C@@H]3C[C@](C)(C(=O)O)CC[C@]3(C)CC[C@]12C [Celastrol],84.16
16,COC(=O)[C@H](c1ccccc1Cl)N1CCc2sccc2C1 [Clopidogrel sulfate],90.49
17,N=C(N)NC(=O)c1nc(Cl)c(N)nc1N [Amiloride hydrochloride],109.84
18,NC(=O)N1c2ccccc2C[C@H](O)c2ccccc21 [Eslicarbazepine],103.44
19,COc1c(/C=C/C(=O)c2ccc(O)cc2)ccc(O)c1O [Licochalcone B],58.04
20,C[C@H]1O[C@@H](O[C@H]2[C@@H](O)C[C@H](O[C@H]3[C@@H](O)C[C@H](O[C@H]4CC[C@@]5(C)[C@H](CC[C@@H]6[C@@H]5C[C@@H](O)[C@]5(C)[C@@H](C7=CC(=O)OC7)CC[C@]65O)C4)O[C@@H]3C)O[C@@H]2C)C[C@H](O)[C@@H]1O [Digoxin],99.51
21,O=c1cc(-c2ccc(O)cc2)oc2cc(O)c([C@@H]3O[C@H](CO)[C@@H](O)[C@H](O)[C@H]3O)c(O)c12 [Isovitexin],79.86

row,Structure (SMILES),% of control remaining [%]
1,CCC1=C(C)CN(C(=O)NCCc2ccc(S(=O)(=O)NC(=O)N[C@H]3CC[C@H](C)CC3)cc2)C1=O [Glimepiride],90.05
2,CCCN(CCC)S(=O)(=O)c1ccc(C(=O)O)cc1 [Probenecid],93.75
3,O=C(O)c1cc(-c2ccc(F)cc2F)ccc1O [Diflunisal],118.03
4,O=C1C[C@@H](c2ccccc2)Oc2cc(O)cc(O)c21 [Pinocembrin],91.25
5,CN(C)CCOC(c1ccccc1)c1ccccc1 [Diphenhydramine Hydrochloride],88.58
6,COC(=O)C[C@](O)(CCCC(C)(C)O)C(=O)O[C@@H]1C(OC)=C[C@]23CCCN2CCc2cc4c(cc2[C@H]13)OCO4 [Homoharringtonine],74.77
7,O=c1c(O)c(-c2ccc(O)cc2O)oc2cc(O)cc(O)c12 [Morin hydrate],96.10
8,Cc1nnc2n1-c1ccc(Cl)cc1C(c1ccccc1)=NC2 [Alprazolam],68.13
9,COc1ccc2cc([C@H](C)C(=O)O)ccc2c1 [Naproxen],116.02
10,COc1c(/C=C/C(=O)c2ccc(O)c(CC=C(C)C)c2)ccc(O)c1O [Licochalcone D],80.45
11,CC1=C(C(=O)O)N2C(=O)[C@@H](NC(=O)[C@H](N)c3ccccc3)[C@H]2SC1 [Cephalexin],109.58
12,COc1ccc(-c2cc(=O)c3c(O)c(OC)c(OC)cc3o2)cc1 [Salvigenin],75.70
13,O=c1c(O)c(-c2ccc(O)c(O)c2)oc2cc(O)cc(O)c12 [Quercetin],47.29
14,NS(=O)(=O)c1cc2c(cc1Cl)NCNS2(=O)=O [Hydrochlorothiazide],99.42
15,COc1cc(/C=C/C(=O)CC(=O)/C=C/c2ccc(O)c(OC)c2)ccc1O [Curcumin],75.83
16,CCN(CC)CCNC(=O)c1cc(S(C)(=O)=O)ccc1OC [Tiapride],108.20
17,CCc1cc(C(N)=S)ccn1 [Ethionamide],91.71
18,O=c1cc(-c2ccccc2)oc2cc(O)c(O)c(O)c12 [Baicalein],48.80
19,C#C[C@]1(O)CC[C@H]2[C@@H]3CCC4=CC(=O)CCC4=C3C=C[C@@]21CC [Gestrinone],66.72
